According to publication PMC9864808, “Exploring Mannosylpurines as Copper Chelators and Cholinesterase Inhibitors with Potential for Alzheimer’s Disease” (Pharmaceuticals, 2022):
Where “and” joins values, the source holds several entries; their conditions need not be identical. Identical values can stand only once.

What was measured:
serum BChE = settings: literature value determined for serum BChE; read-out: IC50 hBChE; cited from earlier work
brain AChE = settings: literature value determined for brain AChE; read-out: IC50 hAChE; cited from earlier work
[1] = molecular target: T1, eqBChE (horse serum butyrylcholinesterase) (Equus caballus, UniProt P81908); experiment: biochemical; settings: for IC50: horse serum BChE, means ± SD of three measurements; for inhibition at 20 µM: read-out: inhibition percentage eqBChE
T1 construct: eqBChE (horse serum BChE); from tissue; host or cells: horse serum
T1 sequence (P81908 whole entry): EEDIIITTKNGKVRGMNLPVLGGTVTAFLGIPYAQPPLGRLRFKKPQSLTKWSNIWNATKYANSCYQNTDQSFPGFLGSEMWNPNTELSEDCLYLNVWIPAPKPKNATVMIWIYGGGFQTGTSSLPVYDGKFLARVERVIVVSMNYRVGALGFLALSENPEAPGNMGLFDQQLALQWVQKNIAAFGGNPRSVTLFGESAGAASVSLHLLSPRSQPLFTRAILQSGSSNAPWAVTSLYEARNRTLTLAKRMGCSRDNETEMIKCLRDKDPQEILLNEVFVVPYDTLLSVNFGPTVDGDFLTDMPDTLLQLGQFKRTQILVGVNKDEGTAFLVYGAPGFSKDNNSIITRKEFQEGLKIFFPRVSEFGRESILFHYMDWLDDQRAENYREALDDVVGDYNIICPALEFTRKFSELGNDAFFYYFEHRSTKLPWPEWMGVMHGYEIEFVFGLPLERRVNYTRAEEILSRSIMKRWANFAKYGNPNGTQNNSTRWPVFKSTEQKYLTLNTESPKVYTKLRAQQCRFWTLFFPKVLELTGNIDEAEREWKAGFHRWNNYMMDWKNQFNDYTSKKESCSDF
Description: (§1) The in vitro inhibitory activities of novel purine nucleosides 5-10, 12, 13 and 15, and 16 were evaluated against both heterologous (electric eel eeAChE, horse eqBChE) and human (recombinant) cholinesterases isoforms, by applying the Ellmann colorimetric assay, with slight modifications. […] The test compounds were assayed for their inhibitory activity toward eeAChE (electric eel AChE) and eqBChE (horse serum BChE), respectively, following Ellman’s method with modifications. […] AChE inhibitory activity was determined similarly by using a solution of AChE (0.9 U/mL in 0.1 M pH 8.0 phosphate buffer, PB) and acetylthiocholine iodide (ATC, 0.05 mM in 0.1 M pH 8.0 phosphate buffer, PB) as substrate. The inhibition data are reported as means of IC50’s determined at least in three independent measurements.

[2] = molecular target: eeAChE (electric eel acetylcholinesterase) (Electrophorus electricus, UniProt O42275); experiment: biochemical; settings: for IC50: Ellman assay, means ± SD of three measurements; for inhibition at 20 µM: read-out: inhibition percentage eeAChE, at 20 μM
Sequence of eeAChE (electric eel acetylcholinesterase) (O42275 24-633): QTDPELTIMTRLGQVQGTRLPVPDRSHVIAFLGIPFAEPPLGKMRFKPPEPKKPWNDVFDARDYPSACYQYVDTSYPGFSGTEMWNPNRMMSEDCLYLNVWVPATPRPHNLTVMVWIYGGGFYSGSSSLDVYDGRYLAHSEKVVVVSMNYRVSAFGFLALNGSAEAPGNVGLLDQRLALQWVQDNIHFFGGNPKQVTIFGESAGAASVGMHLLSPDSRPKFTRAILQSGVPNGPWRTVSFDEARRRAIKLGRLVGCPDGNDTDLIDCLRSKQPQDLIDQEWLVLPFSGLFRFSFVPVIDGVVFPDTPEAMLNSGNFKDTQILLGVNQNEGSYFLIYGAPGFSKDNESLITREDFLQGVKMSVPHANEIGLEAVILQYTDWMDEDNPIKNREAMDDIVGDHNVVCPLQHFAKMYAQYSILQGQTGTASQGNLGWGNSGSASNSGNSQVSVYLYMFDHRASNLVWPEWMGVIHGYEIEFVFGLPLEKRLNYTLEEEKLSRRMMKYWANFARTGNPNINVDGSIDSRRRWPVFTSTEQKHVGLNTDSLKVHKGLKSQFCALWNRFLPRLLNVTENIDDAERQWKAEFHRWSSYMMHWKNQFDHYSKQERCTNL
Description: as §1

[3] = UV-Visible chelating study, iron; settings: UV-Visible absorption
Description: (§2) The chelating activity of all purine nucleoside probes was evaluated by the UV-Visible method in order to determine compounds’ absorption spectra in the absence and in the presence of Cu^2+ at concentrations ranging from 1 μM to 10 μM. […] The resulting wavelength shift from λ = 280 to λ = 325 nm indicates a conformational rearrangement induced by interaction with Cu^2+.
(§3) UV-Visible spectroscopy offers the advantage of high sensitivity towards small changes that affect the electronic properties of ligand receptors, so absorption spectra of all reported compounds have been evaluated by recording UV-visible properties in subsequent conditions: 1.5 mL 1 × 10^−4M of the probe are added to 1.5 mL 2 × 10^−5M of each ion chloride salt’s solution (Copper Chloride (CuCl2), Zinc Chloride (ZnCl2), Iron (II) Chloride (FeCl2) and Aluminum Chloride (AlCl3)). A mixture of distilled water/DMSO 95:5 has been selected as a solvent for compounds 5–10 and 12. For compounds 14–16, the selected solvent was a mixture of distilled water/DMSO 90:10 due to poor water solubility. Furthermore, a titration assay of each compound has been carried out by adding increasing concentration of selected ion (final ion concentration = 1 µM, 2 µM, 3 µM, 5 µM, and 10 µM).

[4] = UV-Visible chelating study, aluminum; settings: UV-Visible absorption
Description: as §2, §3

[5] = molecular target: hAChE (recombinant human isoform) (Homo sapiens, UniProt P22303); experiment: biochemical; assay type: biochemical; settings: for inhibition at 20 µM: read-out: inhibition percentage hAChE; for IC50: recombinant human isoform, means ± SD of three measurements
Sequence of hAChE (recombinant human isoform) (P22303 32-614): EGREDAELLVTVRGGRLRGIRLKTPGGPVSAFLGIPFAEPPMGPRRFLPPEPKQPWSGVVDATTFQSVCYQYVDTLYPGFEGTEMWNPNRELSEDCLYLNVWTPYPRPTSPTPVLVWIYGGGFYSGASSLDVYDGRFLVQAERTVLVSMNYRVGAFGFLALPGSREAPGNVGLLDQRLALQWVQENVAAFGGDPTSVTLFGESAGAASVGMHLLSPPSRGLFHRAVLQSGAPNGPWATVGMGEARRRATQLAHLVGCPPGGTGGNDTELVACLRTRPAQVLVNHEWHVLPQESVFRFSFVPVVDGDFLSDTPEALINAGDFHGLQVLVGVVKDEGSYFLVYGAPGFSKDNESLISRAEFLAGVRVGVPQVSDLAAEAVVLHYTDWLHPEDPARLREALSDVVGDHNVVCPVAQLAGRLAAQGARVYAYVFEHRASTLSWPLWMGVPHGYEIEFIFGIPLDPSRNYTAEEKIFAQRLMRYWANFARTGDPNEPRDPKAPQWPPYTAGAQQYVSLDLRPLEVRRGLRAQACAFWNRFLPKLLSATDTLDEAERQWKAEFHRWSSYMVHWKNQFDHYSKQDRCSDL
Description: (§4) The in vitro inhibitory activities of novel purine nucleosides 5-10, 12, 13 and 15, and 16 were evaluated against both heterologous (electric eel eeAChE, horse eqBChE) and human (recombinant) cholinesterases isoforms, by applying the Ellmann colorimetric assay, with slight modifications.
(§5) The test compounds were assayed for their inhibitory activity toward eeAChE (electric eel AChE) and eqBChE (horse serum BChE), respectively, following Ellman’s method with modifications. […] AChE inhibitory activity was determined similarly by using a solution of AChE (0.9 U/mL in 0.1 M pH 8.0 phosphate buffer, PB) and acetylthiocholine iodide (ATC, 0.05 mM in 0.1 M pH 8.0 phosphate buffer, PB) as substrate. The inhibition data are reported as means of IC50’s determined at least in three independent measurements.

[6] = molecular target: hBChE (recombinant human isoform) (Homo sapiens, UniProt P06276); experiment: biochemical; assay type: biochemical; settings: for IC50: recombinant human isoform, means ± SD of three measurements
Sequence of hBChE (recombinant human isoform) (P06276 29-602): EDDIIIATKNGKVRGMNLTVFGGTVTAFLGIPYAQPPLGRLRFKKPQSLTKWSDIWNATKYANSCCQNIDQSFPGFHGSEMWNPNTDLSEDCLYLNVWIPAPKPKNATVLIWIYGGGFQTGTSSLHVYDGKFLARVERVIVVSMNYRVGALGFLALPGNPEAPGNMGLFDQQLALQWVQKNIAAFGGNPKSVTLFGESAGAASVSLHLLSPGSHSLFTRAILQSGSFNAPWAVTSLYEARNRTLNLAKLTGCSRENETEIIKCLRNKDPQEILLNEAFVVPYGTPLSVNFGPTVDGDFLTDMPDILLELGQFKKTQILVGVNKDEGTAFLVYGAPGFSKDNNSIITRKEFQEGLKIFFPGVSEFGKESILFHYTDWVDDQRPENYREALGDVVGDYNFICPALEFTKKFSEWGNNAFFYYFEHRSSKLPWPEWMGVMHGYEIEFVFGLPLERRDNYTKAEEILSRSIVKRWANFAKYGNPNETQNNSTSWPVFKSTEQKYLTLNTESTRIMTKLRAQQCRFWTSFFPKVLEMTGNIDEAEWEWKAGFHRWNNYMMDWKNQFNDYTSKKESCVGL
Description: as §4, §5

[7] = UV-Visible chelating study, copper; settings: ions Cu^2+, Zn^2+, Fe^2+, Al^3+ as chlorides, water/DMSO
Description: as §2, §3

[8] = UV-Visible chelating study, zinc; settings: UV-Visible absorption
Description: as §2, §3

[9] = Water solubility (qualitative remark); assay type: physicochemical
[10] = at 5 μM (lower water solubility), 5 µM

Compound | IC50 [1] | IC50 [2] | IC50 [5] | IC50 [6] | chelating activity / metal selectivity, result in words [7] | eqBChE inhibition, result in words [1] | other results
COc1ccc2c3c1O[C@H]1C[C@@H](O)C=C[C@@]31CCN(C)C2 [Galantamine] | – | – | – | – | – | – | IC50 (serum BChE): 59.2 ± 1.7 µM; IC50 (brain AChE): 5 ± 0.071 µM
CC(=O)Nc1nc(Cl)c2c(ncn2[C@H]2O[C@H](COCc3ccccc3)[C@@H](OCc3ccccc3)[C@H](OCc3ccccc3)[C@@H]2OCc2ccccc2)n1 [Compound 2, reference compound] | 0.05 ± 0.01 µM | 18.1 ± 4.8 µM | – | – | – | – | –
C[C@@H]1O[C@@H](n2cnc3c(N(Cc4ccccc4)C(=O)c4ccccc4)ncnc32)[C@H](OCc2ccccc2)[C@H](OCc2ccccc2)[C@H]1OCc1ccccc1 [Compound 13, 6-benzamido-N-benzyl-9-(6-deoxy-2,3,4-tri-O-benzyl-α-L-mannopyranosyl)purine] | 5.1 µM and 5.12 µM | > 20 µM | > 20 µM | > 20 µM | did not show chelating activity | selective | interaction with iron ion, result in words [3]: did not show chelating activity; interaction with aluminum ion, result in words [4]: did not show chelating activity; hAChE inhibition, result in words [5]: no activity; inhibition at 20 µM [5]: 8%; hBChE inhibition, result in words [6]: no activity; inhibition at 20 µM ([6]; at 20 μM, read-out: inhibition percentage hBChE): 25%; inhibition at 20 µM [2]: 6%; interaction with zinc ion, result in words [8]: did not show chelating activity
C[C@@H]1O[C@@H](n2cnc3c(NC(=O)c4ccccc4)ncnc32)[C@H](OCc2ccccc2)[C@H](OCc2ccccc2)[C@H]1OCc1ccccc1 [Compound 15, 6-benzamido-9-(6-deoxy-2,3,4-tri-O-benzyl-α-L-mannopyranosyl)purine] | > 5 µM | > 5 µM | > 5 µM | > 5 µM | selective copper chelator | – | interaction with iron ion, result in words [3]: no relevant interaction; water solubility, in words [9]: dramatic reduction of aqueous solubility; interaction with aluminum ion, result in words [4]: no relevant interaction; inhibition percentage hAChE [5, 10]: 28 ± 3%; inhibition at 5 µM ([2]; read-out: inhibition percentage eeAChE, at 5 μM (lower water solubility)): ≤ 50%; interaction with zinc ion, result in words [8]: no relevant interaction
C[C@H]1O[C@H](n2cnc3c(NC(=O)c4ccccc4)ncnc32)[C@@H](OCc2ccccc2)[C@@H](OCc2ccccc2)[C@@H]1OCc1ccccc1 [Compound 9, 6-benzamido-9-(6-deoxy-2,3,4-tri-O-benzyl-α-D-mannopyranosyl)purine] | > 20 µM | 4.7 µM and 4.69 µM | > 20 µM | 15.4 ± 1.1 µM | – | – | inhibition at 20 µM [5]: 25%; hBChE inhibition, result in words [6]: selective inhibitor; inhibition at 20 µM [1]: 28%; eeAChE inhibition, result in words [2]: selective inhibitor
C[C@@H]1O[C@H](n2cnc3c(NC(=O)c4ccccc4)ncnc32)[C@H](OCc2ccccc2)[C@H](OCc2ccccc2)[C@H]1OCc1ccccc1 [Compound 16, 6-benzamido-9-(6-deoxy-2,3,4-tri-O-benzyl-β-L-mannopyranosyl)purine] | > 5 µM | > 5 µM | > 5 µM | > 5 µM | non-selective chelator | – | water solubility, in words [9]: dramatic reduction of aqueous solubility; inhibition percentage hBChE [6, 10]: 30 ± 7%; inhibition at 5 µM ([6]; at 5 μM (lower water solubility), read-out: inhibition percentage hBChE): < 50%
O=C(Nc1ncnc2ncn([C@@H]3O[C@H](COCc4ccccc4)[C@@H](OCc4ccccc4)[C@H](OCc4ccccc4)[C@@H]3OCc3ccccc3)c12)c1ccccc1 [Compound 8, 6-benzamido-7-(2,3,4,6-tetra-O-benzyl-β-D-mannopyranosyl)purine] | 4.4 ± 1.3 µM | 2.6 µM and 2.61 µM | 4.8 µM and 4.81 µM | 4.6 µM and 4.55 µM | – | – | –
O=C(Nc1ncnc2ncn([C@H]3O[C@H](COCc4ccccc4)[C@@H](OCc4ccccc4)[C@H](OCc4ccccc4)[C@@H]3OCc3ccccc3)c12)c1ccccc1 [Compound 7, 6-benzamido-7-(2,3,4,6-tetra-O-benzyl-α-D-mannopyranosyl)purine] | 10 ± 1.1 µM | > 20 µM | – | – | – | selective | –
Clc1ncnc2c1ncn2[C@H]1O[C@H](COCc2ccccc2)[C@@H](OCc2ccccc2)[C@H](OCc2ccccc2)[C@@H]1OCc1ccccc1 [Compound 1, 6-chloro-9-(2,3,4,6-tetra-O-benzyl-α-D-mannopyranosyl)purine, reference compound] | 2.8 ± 0.3 µM | 2.4 ± 0.3 µM | – | – | – | – | –
CC(=O)O[C@@H]1[C@@H](OC(C)=O)[C@H](C)O[C@@H](n2cnc3c(NC(=O)c4ccccc4)ncnc32)[C@@H]1OC(C)=O [Compound 12, 6-benzamido-9-(6-deoxy-2,3,4-tri-O-acetyl-α-L-mannopyranosyl)purine] | > 20 µM | > 20 µM | – | – | selective Cu^2+ chelating agents | not active | hAChE inhibition, result in words [5]: not active; hBChE inhibition, result in words [6]: not active; inhibition at 20 µM [1]: 5%; eeAChE inhibition, result in words [2]: not active; inhibition at 20 µM [2]: 8%
O=C(Nc1ncnc2c1ncn2[C@H]1O[C@H](COCc2ccccc2)[C@@H](OCc2ccccc2)[C@H](OCc2ccccc2)[C@@H]1OCc1ccccc1)c1ccccc1 [Compound 5, 6-benzamido-9-(2,3,4,6-tetra-O-benzyl-α-D-mannopyranosyl)purine] | > 20 µM | > 20 µM | – | – | – | – | inhibition at 20 µM [1]: 11%; inhibition at 20 µM [2]: 25%
O=C(Nc1ncnc2c1ncn2[C@@H]1O[C@H](COCc2ccccc2)[C@@H](OCc2ccccc2)[C@H](OCc2ccccc2)[C@@H]1OCc1ccccc1)c1ccccc1 [Compound 6, 6-benzamido-9-(2,3,4,6-tetra-O-benzyl-β-D-mannopyranosyl)purine] | 4.3 µM and 4.29 µM | 10.6 ± 1.1 µM | 17 ± 0.75 µM | 4.6 µM and 4.58 µM | – | – | –
C[C@H]1O[C@@H](n2cnc3c(NC(=O)c4ccccc4)ncnc32)[C@@H](OCc2ccccc2)[C@@H](OCc2ccccc2)[C@@H]1OCc1ccccc1 [Compound 10, 6-benzamido-9-(6-deoxy-2,3,4-tri-O-benzyl-β-D-mannopyranosyl)purine] | 11.7 ± 1.2 µM | 15 ± 2.1 µM | 17.8 ± 2.2 µM | 8.7 ± 1.35 µM | – | moderate inhibition | –
